From US11899025B2, “Pharmaceutical composition for preventing or treating neurodegenerative diseases comprising COX2 acetylating agent as active ingredient” (KYUNGPOOK NATIONAL UNIVERSITY INDUSTRY-ACADEMIC COOPERATION …, priority 2018, dated 2024)

Test system: APP/PS1 mice
Test: Alzheimer's animal model (APP/PS1 mice): immunofluorescence, Thioflavin S, Morris Water Maze
Type: in vivo, mouse
Conditions: 7-month-old APP/PS1 mice, 5 mg/kg N-acetyl sphingosine, 1 mg/kg FTY720 or 3 uM S1P daily for 4 weeks, intraperitoneal
Text: It has been approved for mouse experiments by the Kyungpook National University Institutional Animal Care and Use Committee (IACUC). A transgenic mouse line overexpressing APPswe (hAPP695swe) or PS1 (presenilin-1M146V) based on C57BL/6 mice (Charles River, UK) was used. [Hereinafter, APP mouse: mouse overexpressing APPswe, PS1 mouse: mouse overexpressing presenilin-1M146V; GlaxoSmithKline]. As an Alzheimer's (AD) animal model, SphK1 tg (SphK1 gene overexpressing mouse) was crossed with APP mice and APP/PS1 mice to prepare APP/PS1/SphK1 tg mice. Niemanpick (NP-C) animal model, Balb/C (Orient, Wild type), NPC mutant mouse lacking NPC1 gene (Provided by Riken, Japan, NP-C mice; less weight than normal mice of the same age, and severe motor function loss from 4 to 6 weeks of age, limb tremors and seizures appear, and lifespan is approximately 9 to 10 weeks. Is) was used. As an animal model for amyotrophic lateral sclerosis (ALS), a transgenic mouse (FUS) line overexpressing RUS R521C based on C57BL/6 mice (Charles River, UK) was used.
After fixing the cerebral and hippocampus of the mouse, anti-20G10 (mouse, 1:1000) against amyloid-β (Aβ) 42 and anti-G30 (rabbit, 1:1000) against Aβ 40, anti-MAP2 (chicken, 1:2000), anti-Synaptophysin (mouse, 1:100), anti-Synapsin1 (rabbit, 1:500), anti-PSD95 (mouse, 1:100), anti-Iba-1 (rabbit, 1:500), Anti-GFAP (rabbit, 1:500) was cultured together. The site was analyzed using a laser scanning confocal microscope or Olympus BX51 microscope equipped with Fluoview SV1000 imaging software (Olympus FV1000, Japan). Metamorph software (Molecular Devices) was used to quantify the percentage of the area of the stained area relative to the area of the total tissue.
In order to confirm the potential effect on learning and memory, MWM (Morris water maze) and fear conditioning experiments were performed. MWM learned the task 4 times a day for 10 days for the mice, the platform was removed on the 11th day, and a probe trial was performed. On the first day of Fear conditioning, the mice were placed in a conditioning chamber, and sound stimulation (10 kHz, 70 dB) and electrical stimulation (0.3 mA, 1 s) were given. On the second day, memory for the space was checked without stimulation in the same conditioning chamber as on the first day, and on the third day, a memory test for fear was performed when only sound stimulation was given in another conditioning chamber. An open field test was performed to evaluate motor ability and immediate activity. In the open field test, the mice were placed in a square box for 10 minutes to measure the overall exercise power, time, and distance.
In order to measure the neuroinflammatory resolution factor, after culturing neurons from mouse cerebrum, CM was prepared by treatment with 10 nM N-acetyl sphingosine 1 phosphate (Toronto Research chemicals, C262710) and N-acetyl sphingosine (Sigma, 01912). For COX2 acetylation analysis, neurons were cultured from mouse cerebrum and then treated with 2 uCi [^14C]N-acetyl sphingosine (ARC, ARC1024). In addition, for in vivo experiments, 7-month-old APP/PS1 mice were injected with 5 mg/kg N-acetyl sphingosine (Sigma, 01912), 1 mg/kg FTY720 and 3 uM S1P daily for 4 weeks via intraperitoneal injection. 1 month-old NPC mice were injected with 5 mg/kg N-acetyl sphingosine (Sigma, 01912) and 2-month-old FUS mice with 30 mg/kg N-acetyl sphingosine (Sigma, 01912) daily for 4 weeks via subcutaneous injection.
The present inventors confirmed AD lesions by injecting N-acetyl sphingosine, one of the COX2 acetylating agents identified through the above experiment, into an APP/PS1 animal model. First, in order to determine the effect of N-acetyl sphingosine on the neuroinflammatory response by secreting neuroinflammatory resolution factor, changes in microglia and astrocytes were observed. […]

CCCCCCCCCCCCC/C=C/[C@@H](O)[C@H](CO)NC(C)=O [N-acetyl sphingosine]
microglia (Iba1) in brain cortex vs APP/PS1 mice (FIG. 9a): remarkable decrease
astrocytes (GFAP) in brain cortex vs APP/PS1 mice (FIG. 9b): remarkable decrease
amount of Aβ / Aβ deposition (Thioflavin S) vs APP/PS1 mice (FIG. 9c): significantly lower
memory and cognition (Morris Water Maze) vs APP/PS1 mice (FIG. 9d): improved
